From US20140100156A1 (SANOFI, priority 2012, published 2014)

Columns and labels:
[1] = target: T1, human GLP-1 receptor (Homo sapiens, UniProt P43220); assay: cAMP response (HTRF) of HEK-293 cells stably expressing human GLP-1 receptor; format: cell-based; settings: Table 5, read-out: EC50 hGLP-1R
T1 construct: expressed in transfected cells; host or cells: HEK-293
Method: (§1) cAMP content of cells was determined using a kit from Cisbio Corp. (cat. no. 62AM4PEC) based on HTRF (Homogeneous Time Resolved Fluorescence). For preparation, cells were split into T175 culture flasks and grown overnight to near confluency in medium (DMEM/10% FBS). Medium was then removed and cells washed with PBS lacking calcium and magnesium, followed by proteinase treatment with accutase (Sigma-Aldrich cat. no. A6964). Detached cells were washed and resuspended in assay buffer (1×HBSS; 20 mM HEPES, 0.1% BSA, 2 mM IBMX) and cellular density determined. […] For measurement, 25 μl of test compound in assay buffer was added to the wells, followed by incubation for 30 minutes at room temperature.

[2] = target: T2, human glucagon receptor (Homo sapiens, UniProt P47871); assay: cAMP response (HTRF) of HEK-293 cells stably expressing human glucagon receptor; format: cell-based; settings: Table 5, read-out: EC50 hGlucagon-R
T2 construct: expressed in transfected cells; host or cells: HEK-293
Method: as §1

[3] = format: physicochemical; settings: pH 4.5
Method: Prior to the testing of solubility and stability of a peptide batch, its content was determined. Therefore, two parameters were investigated, its purity (HPLC-UV) and the amount of salt load of the batch (ion chromatography). Since synthesized peptides contain primarily trifluoroacetate anions, only anion chromatography was performed.
. Therefore, solutions from solid samples were prepared in different buffer systems with a concentration of 1.0 mg/mL compound based on the previously determined content. HPLC-UV was performed after 2 h of gentle agitation from the supernatant, which was obtained by 20 min of centrifugation at 4000 rpm.
This analysis also served as starting point (t0) for the stability testing.
Instrument: Agilent 1100, column: X-Bridge C18 3.5 μm 2.1×150 mm (Waters), eluent: A: H20+500 ppm TFA/B: Methanol, flow: 0.55 mL/min, gradient: 0-5 min: 10-60% B; 5-15 min: 60-99% B; detection: 214 nm.

T1 sequence (P43220 24-463): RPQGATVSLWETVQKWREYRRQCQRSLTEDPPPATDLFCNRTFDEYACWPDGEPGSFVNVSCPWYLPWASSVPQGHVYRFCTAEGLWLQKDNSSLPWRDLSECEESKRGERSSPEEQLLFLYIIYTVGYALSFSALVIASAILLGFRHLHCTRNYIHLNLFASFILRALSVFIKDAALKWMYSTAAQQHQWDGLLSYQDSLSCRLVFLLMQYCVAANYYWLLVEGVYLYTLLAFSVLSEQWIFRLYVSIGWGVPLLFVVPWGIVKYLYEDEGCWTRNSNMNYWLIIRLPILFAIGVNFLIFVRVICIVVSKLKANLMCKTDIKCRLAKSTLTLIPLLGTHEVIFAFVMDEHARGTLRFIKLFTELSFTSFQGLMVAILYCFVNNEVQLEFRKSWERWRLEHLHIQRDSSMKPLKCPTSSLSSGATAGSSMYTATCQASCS
T2 sequence (P47871 26-477): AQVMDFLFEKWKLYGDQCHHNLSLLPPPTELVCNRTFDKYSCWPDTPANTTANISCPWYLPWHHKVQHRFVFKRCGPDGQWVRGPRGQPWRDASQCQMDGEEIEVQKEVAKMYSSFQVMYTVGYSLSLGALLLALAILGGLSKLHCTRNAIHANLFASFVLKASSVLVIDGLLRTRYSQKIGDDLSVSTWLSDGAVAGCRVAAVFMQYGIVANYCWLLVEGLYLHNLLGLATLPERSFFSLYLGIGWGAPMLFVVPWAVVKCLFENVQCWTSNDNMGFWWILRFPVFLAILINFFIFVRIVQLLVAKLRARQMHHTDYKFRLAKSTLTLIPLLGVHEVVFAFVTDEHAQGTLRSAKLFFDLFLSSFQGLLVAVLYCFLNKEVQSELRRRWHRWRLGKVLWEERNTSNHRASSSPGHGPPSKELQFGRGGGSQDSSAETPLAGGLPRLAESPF

SMILES	EC50 [1] [pM]	EC50 [2] [pM]	Solubility pH4.5 [3] [mg/ml]
CCCCCCCCCCCCCCCC(=O)N[C@@H](CCC(=O)NCCCC[C@H](NC(=O)[C@H](CCC(N)=O)NC(=O)[C@H](CCCCN)NC(=O)[C@H](CO)NC(=O)[C@H](CC(C)C)NC(=O)[C@H](CC(=O)O)NC(=O)[C@H](CO)NC(=O)[C@@H](NC(=O)[C@H](Cc1ccccc1)NC(=O)[C@@H](NC(=O)CNC(=O)[C@H](Cc1c[nH]cn1)NC(=O)[C@H](CO)NC(=O)[C@@H](N)Cc1c[nH]cn1)[C@@H](C)O)[C@@H](C)O)C(=O)N[C@@H](CCC(=O)O)C(=O)N[C@@H](CO)C(=O)N[C@@H](CCCNC(=N)N)C(=O)N[C@@H](CCCNC(=N)N)C(=O)N[C@@H](C)C(=O)N[C@@H](CCC(N)=O)C(=O)N[C@@H](CC(=O)O)C(=O)N[C@@H](Cc1ccccc1)C(=O)N[C@H](C(=O)N[C@@H](CCC(=O)O)C(=O)N[C@@H](Cc1c[nH]c2ccccc12)C(=O)N[C@@H](CC(C)C)C(=O)N[C@@H](CCCCN)C(=O)N[C@@H](C)C(=O)NCC(=O)NCC(=O)N1CCC[C@H]1C(=O)N[C@@H](CO)C(=O)N[C@@H](CO)C(=O)NCC(=O)N[C@@H](C)C(=O)N1CCC[C@H]1C(=O)N1CCC[C@H]1C(=O)N1CCC[C@H]1C(=O)N[C@@H](CO)C(N)=O)[C@@H](C)CC)C(=O)O [compound 208]	2	1.3	
CCCCCCCCCCCCCCCC(=O)N[C@@H](CCC(=O)NCCCC[C@H](NC(=O)[C@H](C)NC(=O)[C@H](C)NC(=O)[C@H](CCC(N)=O)NC(=O)CNC(=O)[C@H](CCC(=O)O)NC(=O)[C@H](CC(C)C)NC(=O)[C@H](Cc1ccc(O)cc1)NC(=O)[C@H](CO)NC(=O)[C@H](CO)NC(=O)[C@@H](NC(=O)[C@H](CC(=O)O)NC(=O)[C@H](CO)NC(=O)[C@@H](NC(=O)[C@H](Cc1ccccc1)NC(=O)[C@@H](NC(=O)CNC(=O)[C@H](CCC(=O)O)NC(=O)[C@H](C)NC(=O)[C@@H](N)Cc1cnc[nH]1)[C@@H](C)O)[C@@H](C)O)C(C)C)C(=O)N[C@@H](CCC(=O)O)C(=O)N[C@@H](Cc1ccccc1)C(=O)N[C@H](C(=O)N[C@@H](C)C(=O)N[C@@H](Cc1c[nH]c2ccccc12)C(=O)N[C@@H](CC(C)C)C(=O)N[C@H](C(=O)N[C@@H](CCCNC(=N)N)C(=O)NCC(=O)N[C@@H](CCCNC(=N)N)C(=O)NCC(=O)O)C(C)C)[C@@H](C)CC)C(=O)O [compound 195]			0
